Data published in patent US12338484B2, “FRET biosensor for detecting and reporting NAD+/NADH ratio changes” (Sartorius BioAnalytical Instruments, Inc., priority 2022, dated 2025).

How the values were obtained:
Format in all cases: biochemical
[1] = target: T1, Thermus aquaticus T-Rex FRET fusion, initial construct #4, Rex(78-211)-Rex(78-189)-cpmEGFP(145/146)-Rex(190-211)-mKOk, SEQ ID NO: 164 (Thermus aquaticus, UniProt Q9X2V5, INS189[…]); experiment: FRET response (emission spectra) of purified initial construct #4 in absence or presence of 40 uM NADH; set-up: key: Good response: Constructs with very clear and robust spectra separation; Poor response: those with noticeable but small spectra separation; No response: those having no spectra separation
T1 construct: His-tag purified from E. coli
Experimental: (§1) 16 initial FRET constructs (See Table 3) were constructed using expression vector pET28c with a T7 promoter and lac operator and expressed in E. coli. Cells were collected and lysed using a commercially-available lysis buffer. Proteins of interest were isolated from the lysates using Ni-NTA magnetic beads. Eluted proteins were subjected to buffer exchange and final protein concentrating. To test performance of the initial FRET constructs, their emission spectra was recorded on a plate reader in absence or presence of 40 uM NADH. Resulting emission spectra with or without the ligand were normalized and overlaid for each construct. Constructs with very clear and robust spectra separation were labeled as having “good response”, those with noticeable but small spectra separation were labeled as having “poor response”, and finally those having no spectra separation were labeled as having “no response”.

[2] = target: T2, Thermus aquaticus T-Rex FRET fusion, initial construct #5, mKOk-Rex(78-189)-cpmEGFP(173/174)-Rex(190-211)-Rex(78-211), SEQ ID NO: 165 (Thermus aquaticus, UniProt Q9X2V5, INS189[…]); experiment: FRET response (emission spectra) of purified initial construct #5 in absence or presence of 40 uM NADH; set-up: key: Good response: Constructs with very clear and robust spectra separation; Poor response: those with noticeable but small spectra separation; No response: those having no spectra separation
T2 construct: His-tag purified from E. coli
Experimental: as §1

[3] = target: Thermus aquaticus T-Rex FRET biosensor construct #14 (Rex(A)-mEGFP-Rex(B)-mKOk, SEQ ID NO: 174), library variant 1-F8, SEQ ID NO: 13 (Thermus aquaticus, UniProt Q9X2V5, E116G/F189I/K117M/K47E/R46D/R58D/S30A/Y98W); experiment: Signal window in bacterial lysates, FRET ratio in presence or absence of 200 uM NADH (Table 2); conditions: clone 1-F8, SEQ ID NO: 13
Source text: (§2) In specific embodiments, the fusion protein comprises the amino acid sequence selected from the group consisting of SEQ ID NO: 13-93, 95-154, and 191-193; the sequences are provided in Table 2 and the examples.
(§3) Protein library DNA was generated following cloning that assembled pieces of DNA that were generated using PCRs with mixtures of primers. DNA was transformed into E. coli, and the first round of protein library expression was done in bacterial colonies on agar plates. The colonies, each expressing different library members, were imaged, and then classified into groups based on their FRET ratio signal. Colonies from different groups were inoculated into 96-deep-well plates for further protein expression in liquid culture. The original construct that was used to generate the library (e.g., construct #14 in Table 2) was also inoculated on the same plates, along with non-expressing bacteria. The latter served as a negative control.

[4] = target: Thermus aquaticus T-Rex FRET biosensor construct #14 (Rex(A)-mEGFP-Rex(B)-mKOk, SEQ ID NO: 174), library variant 1-A7, SEQ ID NO: 20 (Thermus aquaticus, UniProt Q9X2V5, E116G/F189I/K117M/K47E/R46D/R58D/S30A/Y98W); experiment: as above; conditions: clone 1-A7, SEQ ID NO: 20
Source text: as §2, §3

[5] = target: Thermus aquaticus T-Rex FRET biosensor construct #14 (Rex(A)-mEGFP-Rex(B)-mKOk, SEQ ID NO: 174), library variant 4-A2, SEQ ID NO: 19 (Thermus aquaticus, UniProt Q9X2V5, E116G/F189I/K117M/K47E/R46D/R58D/S30A/Y98W); experiment: as above; conditions: clone 4-A2, SEQ ID NO: 19
Source text: as §2, §3

[6] = target: Thermus aquaticus T-Rex FRET biosensor construct #14 (Rex(A)-mEGFP-Rex(B)-mKOk, SEQ ID NO: 174), library variant 2-F3, SEQ ID NO: 15 (Thermus aquaticus, UniProt Q9X2V5, E116G/F189I/K117M/K47E/R46D/R58D/S30A/Y98W); experiment: as above; conditions: clone 2-F3, SEQ ID NO: 15
Source text: as §2, §3

[7] = target: Thermus aquaticus T-Rex FRET biosensor construct #14 (Rex(A)-mEGFP-Rex(B)-mKOk, SEQ ID NO: 174), library variant 1-G8, SEQ ID NO: 16 (Thermus aquaticus, UniProt Q9X2V5, E116G/F189I/K117M/K47E/R46D/R58D/S30A/Y98W); experiment: as above; conditions: clone 1-G8, SEQ ID NO: 16
Source text: as §2, §3

[8] = target: Thermus aquaticus T-Rex FRET biosensor construct #14 (Rex(A)-mEGFP-Rex(B)-mKOk, SEQ ID NO: 174), library variant 3-C8, SEQ ID NO: 14 (Thermus aquaticus, UniProt Q9X2V5, E116G/F189I/K117M/K47E/R46D/R58D/S30A/Y98W); experiment: as above; conditions: clone 3-C8, SEQ ID NO: 14
Source text: as §2, §3

[9] = target: Thermus aquaticus T-Rex FRET biosensor construct #14 (Rex(A)-mEGFP-Rex(B)-mKOk, SEQ ID NO: 174), library variant 4-D10, SEQ ID NO: 17 (Thermus aquaticus, UniProt Q9X2V5, E116G/F189I/K117M/K47E/R46D/R58D/S30A/Y98W); experiment: as above; conditions: clone 4-D10, SEQ ID NO: 17
Source text: as §2, §3

[10] = target: T3, Thermus aquaticus T-Rex FRET fusion, initial construct #6, Rex(78-189)-cpmEGFP(173/174)-Rex(190-211)-Rex(78-211)-mKOk, SEQ ID NO: 166 (Thermus aquaticus, UniProt Q9X2V5, INS189[…]); experiment: FRET response (emission spectra) of purified initial construct #6 in absence or presence of 40 uM NADH; set-up: key: Good response: Constructs with very clear and robust spectra separation; Poor response: those with noticeable but small spectra separation; No response: those having no spectra separation
T3 construct: His-tag purified from E. coli
Experimental: as §1

[11] = target: Thermus aquaticus T-Rex FRET fusion, initial construct #11, mKOk-Rex(A)-cpmEGFP(173/174)-Rex(B), SEQ ID NO: 171 (Thermus aquaticus, UniProt Q9X2V5, E116G/F189I/K117M/K204T/K47E/R46D/R58D/S30A/Y98W); experiment: FRET response (emission spectra) of purified initial construct #11 in absence or presence of 40 uM NADH; set-up: key: Good response: Constructs with very clear and robust spectra separation; Poor response: those with noticeable but small spectra separation; No response: those having no spectra separation
Experimental: as §1

For `NC(=O)C1=CN([C@@H]2O[C@H](COP(=O)(O)OP(=O)(O)OC[C@H]3O[C@@H](n4cnc5c(N)ncnc54)[C@H](O)[C@@H]3O)[C@@H](O)[C@H]2O)C=CC1` [NADH], the “FRET response to NADH” value [1] was “No response”, the “FRET response to NADH” value [2] was “No response” and the “Signal window (ex mode), measured in lysates” value (“Signal window (ex mode)” for short) [3] was 0.55. For the same compound, the “Signal window (ex mode)” value [4] was 0.31, the “Signal window (ex mode)” value [5] was 0.32 and the “Signal window (ex mode)” value [6] was 0.34. The “Signal window (ex mode)” value [7] was 0.34, the “Signal window (ex mode)” value [8] was 0.4 and the “Signal window (ex mode)” value [9] was 0.34. For the same compound, the “FRET response to NADH” value [10] was “No response” and the “FRET response to NADH” value [11] was “Poor response”.
